Data as given in patent publication US8304238B2, “Cell culture medium and immobilized preparation of cell adhesion protein or peptide” (Nat'l Institute for Environmental Studies, priority 2003, dated 2012).
Entries after “also recorded” stand apart in the source; their conditions may differ. Where no end group is shown, it is not given here.

Assays:
[1] = test system: alveolar type II epithelial cells (T2 cells); assay: Binding strength (affinity) of immobilized LN peptides to T2 cells relative to immobilized FIB-1 (mixed immobilization, free FIB-1 competition); format: cell-based; set-up: key to Binding strength to T2 cells, Comprehensive evaluation: AA: extremely strongly binding/adhering; A: strongly binding/adhering; B: intermediately binding/adhering (as the same degree as FIB-1 peptide); C: more weakly binding/adhering than FIB-1 peptide; conditions: for Binding strength to T2 cells, Comprehensive evaluation: classification relative to FIB-1 peptide; for Binding strength to T2 cells, Ratio to FIB-1: inverse of mixing ratio at transitional midpoint, MMAC-coated well; for Binding strength to T2 cells, Ratio to FIB-1 / Mixing ratio at the transitional midpoint: FIB-1 0.25 mg/ml; for Mixing ratio at the transitional midpoint: peptide:FIB-1 co-immobilized, loss of inhibition by free FIB-1
Procedure: Therefore, the amount of FIB-1 peptide was set at 0.25 mg/ml, and AG73 peptide was mixed therewith, while changing its concentration ratio, from 1/1.250 of FIB-1 in an amount which is 0.20 μg/ml, to ½ of FIB-1 in an amount which is 0.125 mg/ml, and the mixture was immobilized on a well wherein a hydrophobic binding-adsorptive polymer MMAC was coated. The amount of cell adhesion in the case where T2 cells were cultured under a serum-free condition for 1 day on the immobilized peptides is shown in FIG. 9, in comparison with the case where the culture was conducted on the immobilized FIB-1, which was set at 100%.
However, in a case that the ratio of FIB-1:AG73 increased to 1:0.02, because T2 cells already transited to be adherent through the immobilized AG73 peptide, free FIB-1 peptide could no longer inhibit the cell adhesion. […] Likewise, with regard to A3G72 and A4G82 peptides, because the mixing ratio at the transitional midpoint=0.1, their binding strength to T2 cells is 10 times as much as that of FIB-1.
The method used in FIGS. 8 and 9 is extremely effective as a convenient method by which a relative order can be measured concerning to the binding strength (affinity) of cell adhesion peptides and the strength of cell adhesion can be considered quantitatively.
In Table 1, the classification is shown based on the results of the affinity (bonding/adhesion strength) between FIB-1 peptide containing RGD amino acid sequence of FN molecule, a binding site to integrin, and T2 cells: laminin α-chain G-domain peptides are classified into class AA, extremely strong binding/adhesion; class A, strong adhesion; class B, adhesion as the same degree as FIB-1; and class C, binding weaker than the described above.

[2] = test system: alveolar type II epithelial cells (T2 cells); assay: Inhibition by free cell adhesion peptides of T2 cell adhesion to coated cell adhesion proteins FN, Col I, LN, VN; format: cell-based; conditions: for Inhibition of adhesion of T2 cells to FN, Col I, LN and VN by free peptide: free peptide 0.25 mg/ml, serum-free, 1 day
Procedure: Commercially available FN, LN and VN, usually used as cell adhesion proteins at cell culture, were coated to wells at the concentrations of 5 μg/ml, 10 μg/ml and 10 μg/ml, respectively. In case of Col I (collagen type I), Col I at the concentration of 100 μg/ml, dissolved in 1 mM HCl, was poured into a well, left stand still for a while, and then the solution was removed and air-drying was conducted, and rinsed with the medium, before use. Next, 6×10^5 cells/ml of alveolar type II epithelial cells (T2 cells) suspended in the serum-free DMEM medium was seeded by 100 μl each on a 96-well to which the extracellular matrix was coated, and cultured in a CO2 incubator at 37° C. for 1 day. After the culture was finished, the cells were fixed with 100 μl of methanol for 5 minutes, and stained for 30 minutes with 50 μl of 0.4% crystal violet. Excessive staining was washed with water, then the number of cells adhered to FN, Col I, LN and VN, which had been coated to the wells, was counted based on the absorbance of cytoplasm (A595).
On the other hand, among amino acid sequences of various LN molecules, the sequences that induce cell adhesion are known to be present. […] Then, the number of cells was counted in accordance with the method described above.

[3] = test system: alveolar type II epithelial cells (T2 cells); assay: Inhibition of T2 cell adhesion by free peptide different from the immobilized peptide substrate; format: cell-based; conditions: for Inhibition by free peptide of T2 cell adhesion to immobilized AG73: AG73 (etc.) immobilized; for Inhibition by free peptide of T2 cell adhesion to immobilized FIB-1: FIB-1 immobilized
Procedure: Results obtained by adding the free peptides different from the immobilized peptides when T2 cells were cultured on the immobilized peptide prepared according to the method in Example 7, were shown in FIG. 8.
When adding the free peptides that were the same as the immobilized peptides in the culture medium, the both (free and immobilized) peptides compete for syndecan of T2 cells and as a result, the cell adhesion is inhibited (see Example 7). So far, four types of syndecans are genetically known. Whether these syndecans are commonly owned or accommodated by each peptide, overlapping only by some degrees, otherwise mutually exclusive, was examined herein.

[4] = test system: alveolar type II epithelial cells (T2 cells); assay: Time course of cell adhesion/spreading of T2 cells on immobilized cell adhesion peptide substrates; format: cell-based
Procedure: Culture was conducted by using the cell adhesion peptides immobilized on a well and T2 cells, for 1-24 hours according to the method in Example 8.
As cell adhesion peptides, AG73 was used in B, E and M, FIB-1 was used in C, L and O, A3G72 was used in F, A4G82 was used in G and N, A5G71 was used in H, A5G77 was used in I, hA3G75 was used in J, and hA3G83 was used in K; FN was used as a standard substance in A and D.

[5] = test system: alveolar type II epithelial cells (T2 cells); assay: Static and forced stretching culture of T2 cells on MMAC-coated silicone wells with immobilized proteins or peptides; format: cell-based; conditions: for Reorientation of T2 cells under forced stretching: 1 day static, 1 day stretching (1dC-1dS), 25 percent, 15 times per minute; for Change of type II epithelial cells into a shape like type I epithelial cells: 3 days static, 3 days stretching (3dC-3dS)
Procedure: A silicone well coated with MMAC was obtained by pouring 0.5 ml of ethanol solution of 50 μg/ml of MMAC (ISP, International Specialty Products, USA) into a silicone well with a groove of 20 mm×20 mm×10 mm, absorbing excess solution, and conducting air-drying.
Into the silicone wells coated by the method described in Example 1, 10 μg/ml of cell adhesion protein solution of fibronectin (FN), laminin-1 (LN), dissolved in 0.1 M triethanolamine buffer solution of pH 8.8, or 0.25 mg/ml of cell adhesion peptide solution of FIB-1, AG73 was poured respectively, and the reaction was conducted for at least several hours at 37° C. to bind and immobilize these proteins or peptides having cell adhesion activity (see Example 6 described later for particulars of immobilization). Subsequently, alveolar type II epithelial cell (T2 cells) suspension was poured, 5×10^4/cm^2 per unit area, and the culture was started in a CO2 culture apparatus.
T2 cells, 2×10^5/cm^2 per unit area, were seeded on the silicone well wherein the cell adhesion proteins or peptides were immobilized, which had been prepared in an almost same manner as that of Example 2, and static culture was conducted for 1 day. After confirming that the seeded cells confluently spread all over the culture face, horizontal cell stretching was forcibly started at the stretching degree of twenty five percents and at the frequency of 15 times per minute, by using cell culture stretching apparatus (Scholar Tec), and the culture was continued one more day. After the culture was finished, photographs of cell adhesion state were taken with a phase contrast microscope (FIG. 2, top 4 rows).
T2 cells, 5×10^4/cm^2 per unit area, were seeded on the silicone well wherein the cell adhesion proteins or peptides were immobilized, which had been prepared in an almost same manner as that of Example 2, and static culture was conducted for 3 days. T2 cells grew in a manner similar to that shown in FIG. 1, 3d (results are not shown because they are overlapping). Then, the cells were subjected to the same stimuli of forced stretching as in Example 1, and the culture was continued one more day. After the culture was finished, photographs of cell adhesion state were taken with a phase contrast microscope (FIG. 2, middle 4 rows) (FN, 3dC-1dS, LN, 3dC-1dS, FIB-1, 3dC-1dS, and AG-73, 3dC-1dS).
Forced stretching culture was conducted for 3 days in an almost same manner as stretching culture of Example 4. After the culture was finished, photographs of cell adhesion state were taken with a phase contrast microscope (FIG. 2, bottom 4 rows) (FN, 3dC-3dS, LN, 3dC-3dS, FIB-1, 3dC-3dS, and AG-73, 3dC-3dS).

[6] = target: syndecan present on the cell surface of T2 cells (alveolar type II epithelial cells); assay: T2 cell adhesion to immobilized peptides, competitive inhibition by free peptides (FIGS. 8 and 9)
[7] = target: syndecan present on the cell surface of T2 cells (alveolar type II epithelial cells); assay: T2 cell adhesion to FIB-1 and the peptide co-immobilized on MMAC-coated wells, inhibition by free FIB-1 (FIG. 9)

Binding strength to T2 cells, Ratio to FIB-1 (fold (ratio to FIB-1)) [6] | mixing ratio at the transitional midpoint (peptide to FIB-1) [7] | Molecule | Binding strength to T2 cells, Comprehensive evaluation [1] | Binding strength to T2 cells, Ratio to FIB-1 [1] | Mixing ratio at the transitional midpoint [1] | Inhibition of adhesion of T2 cells to FN, Col I, LN and VN by free peptide [2] | Inhibition by free peptide of T2 cell adhesion to immobilized AG73 [3] | Inhibition by free peptide of T2 cell adhesion to immobilized FIB-1 [3] | Cell adhesion/spreading on immobilized peptide ([4]; 6-hour culture) | further results
– | – | TLFLAHGRLVFM | A | 10 | 0.1 | inhibited adhesion of T2 cells | inhibited the cell adhesion | could inhibit | the cells were spreading | Cell adhesion/spreading on immobilized peptide ([4]; 24-hour culture): almost all cells had finished spreading
– | – | fibronectin [FN] | – | – | – | – | – | – | – | Reorientation of T2 cells under forced stretching [5]: not very obvious; Change of type II epithelial cells into a shape like type I epithelial cells [5]: less observed
– | – | laminin-1 [LN] | – | – | – | – | – | – | – | Reorientation of T2 cells under forced stretching [5]: not very obvious; Change of type II epithelial cells into a shape like type I epithelial cells [5]: changed into a shape like flat type I epithelial cells
– | – | KNSFMALYLSKG | B | 2 | about 1 | inhibited adhesion of T2 cells | inhibited the cell adhesion | could inhibit | delay in spreading but sufficient cell adhesion | –
– | – | RKRLQVQLSIRT | AA | 100 | 0.01 | inhibited adhesion of T2 cells | inhibited the cell adhesion | inhibited; also recorded: could inhibit | the cells were spreading | Inhibition of adhesion of T2 cells to cell adhesion proteins by free peptide ([2]; free peptide 0.12 mg/ml): exhibited the inhibitory activity; Cell adhesion/spreading on immobilized peptide ([4]; 24-hour culture): almost all cells had finished spreading; Reorientation of T2 cells under forced stretching [5]: spread in an elongated shape to a direction perpendicular to the direction of forced stretching; Change of type II epithelial cells into a shape like type I epithelial cells [5]: changed into a shape like flat type I epithelial cells
– | – | GNSTISIRAPVY | B | 1-2 | about 1 | inhibited adhesion of T2 cells | inhibited the cell adhesion | could inhibit | delay in spreading but sufficient cell adhesion | –
– | – | KPRLQFSLDIQT | A | 10 | 0.1 | inhibited adhesion of T2 cells | inhibited the cell adhesion | – | the cells were spreading | –
10 | 0.1 | KPRLQFSLDIQT [A3G72 (Lys-Pro-Arg-Leu-Gln-Phe-Ser-Leu-Asp-Ile-Gln-Thr)] | – | – | – | – | – | – | – | –
– | 1 | LVLFLNHGHFVA [A5G77 (Leu-Val-Leu-Phe-Leu-Asn-His-Gly-His-Phe-Val-Ala)] | – | – | – | – | – | – | – | –
10 | 0.1 | TLFLAHGRLVFM [A4G82 (Thr-Leu-Phe-Leu-Ala-His-Gly-Arg-Leu-Val-Phe-Met)] | – | – | – | – | – | – | – | –
2 | 1 | KNSFMALYLSKG [hA3G75 (Lys-Asn-Ser-Phe-Met-Ala-Leu-Tyr-Leu-Ser-Lys-Gly)] | – | – | – | – | – | – | – | –
< 1 | – | VKTEYIKRKAFM [AG81.2 (Val-Lys-Thr-Glu-Tyr-Ile-Lys-Arg-Lys-Ala-Phe-Met)] | – | – | – | – | – | – | – | –
– | 1 | GNSTISIRAPVY [hA3G83 (Gly-Asn-Ser-Thr-Ile-Ser-Ile-Arg-Ala-Pro-Val-Tyr)] | – | – | – | – | – | – | – | –
